According to patent KR20170021349A, “다양한 질병의 치료를 위한 jnk 신호 전달 경로의 세포 투과성 펩타이드 억제자의 새로운 용도” (자이겐 인플라메이션 리미티드, priority 2014, dated 2017):
Entries after “also recorded” stand apart in the source; their conditions may differ.

Tests used:
TC-3 cells = assay: Cellular import of fluorescein-labelled TAT and TAT-IB1(s) peptides; assay type: cell-based
[1] = test system: recombinant JNK1, JNK2, JNK3; assay: Solid-phase kinase assay: JNK-mediated phosphorylation of c-Jun, ATF2, Elk1; assay type: biochemical; conditions: GST-Jun (aa 1-73), 0-250 μM
porcine islets = assay: Porcine islet isolation; assay type: cell-based, pig
rats = assay: Adriamycin-induced nephropathy; assay type: in vivo, rat
Wistar rats [2] = assay: Puromycin aminonucleoside (PAN)-induced nephropathy, 56 days; assay type: in vivo, rat
rat pancreatic islets [3] = assay: Rat islet isolation after warm ischemia; assay type: cell-based
rat pancreatic islets [4] = assay: Rat islets, 4 h hypoxia; assay type: cell-based; conditions: 100 μM
Wistar rats [5] = assay: Ligature-induced periodontitis; assay type: in vivo, rat; conditions: day 17
[6] = test system: Hep G2 tumours in SWISS nude mice; assay: Orthotopic Hep G2 human liver carcinoma, dose/response; assay type: in vivo, mouse
[7] = test system: PC-3 tumours in Balb/c nude mice; assay: Subcutaneous PC-3 human prostate tumour; assay type: in vivo, mouse; conditions: 0.1 and 1 mg/kg/inj Q4Dx4, dose-dependent, more marked at 1 mg/kg
Brown Norway rats = assay: STZ diabetic retinopathy, repeated subconjunctival administration; assay type: in vivo, rat
Lewis rats = assay: Endotoxin-induced uveitis (EIU), duration of action after subconjunctival injection; assay type: in vivo, rat
Sprague-Dawley rats = assay: Bilateral renal ischemia reperfusion, histology; assay type: in vivo, rat
[8] = test system: female Sprague-Dawley rats; assay: CYP-induced acute cystitis, intravenous treatment, visceral pain; assay type: in vivo, rat; conditions: 2 mg/kg i.v.
[9] = test system: primary mouse cortical neurons (WT); assay: Aβ42-induced stress/apoptosis in WT cortical neurons; assay type: cell-based
[10] = test system: primary cortical neurons of PKR-/- mice; assay: Aβ42-induced stress/apoptosis in PKR-/- cortical neurons; assay type: cell-based, mouse
primary macrophages = assay: Uptake into primary cultured macrophages (specific antibody); assay type: cell-based; conditions: Fig. 24
[11] = Immunostaining of liver 24 h after 1 mg/kg i.v.; assay type: in vivo, rat; conditions: Fig. 26
[12] = Ocular pharmacokinetics after single and repeated subconjunctival administration; assay type: in vivo, rabbit
[13] = Stability of stock and diluted solutions; assay type: physicochemical
[14] = 20 μg/eye, 1 day before induction
[15] = 20 μg/eye, 2 days before induction
[16] = 20 μg/eye, 7 days before induction
[17] = 20 μg/eye, 14 days before induction
[18] = 20 μg/eye, 21 days before induction
[19] = 20 μg/eye, 28 days before induction
[20] = 10 μM pre-treatment, 2 μM Aβ42 5 h (Example 49)
[21] = peptide pre-treatment 1 h (XG-102 10 μM), 2 μM Aβ42
[22] = dual PKR and JNK inhibition, 10 μM

NH2-DQSRPVQPFLNLTTPRKPRPPRRRQRRKKRG-COOH (H-DQSRPVQPFLNLTTPRKPRPPRRRQRRKKRG-OH; also: D-amino acids (positions not given here)) [XG-102]
time to enter cells (TC-3 cells; 1 μM labelled peptide): < 5 분 | stability inside cells (TC-3 cells; time course): 극도로 안정하다 | fold less efficient than L-TAT-IB1(s) in decreasing JNK-mediated c-Jun phosphorylation [1]: 10-20 배 | isolations with OCR/DNA above cut-off, successfully transplanted into NHPs (porcine islets): 6/6 | relative c-fos gene expression (porcine islets; 10 μM): 감소시키고 | JNK activation during isolation (porcine islets; 10 μM in pancreas and isolation solutions): 차단하고 | viability of freshly isolated islets (OCR/DNA, ATP/protein) (porcine islets; 10 μM vs paired untreated control): 통계적으로 현저하고 중요한 영향을 가짐 | development of glomerular and tubulointerstitial fibrosis (rats; 2 mg/kg i.v. day 0): 발생을 예방하고 | effect on adriamycin-induced nephropathy (histology) (rats; 20, 200, 2000 μg/kg i.v., days 8-41): 현저하게 긍정적인 효과를 갖는다 | serum urea level throughout the disease course (rats; ADR 10 mg/kg + XG-102 2 mg/kg i.v. day 0, up to day 56): ≤ 10 mmol/L | adverse effect on proteinuria (rats; albumin ELISA, Fig. 41): 어떠한 역효과도 유발하지 않는 | c-jun expression in the interstitium (rats; days 8 and 14, Fig. 46-47): 현저한 감소를 초래 | effect on PAN-induced glomerulosclerosis (Wistar rats [2]; 1 mg/kg, 7 weekly i.v. injections): 효과가 없었다 | effect on PAN-induced glomerulosclerosis (Wistar rats [2]; 4 mg/kg, 4 i.v. injections from day 21): 강한 효과를 초래하였다 | PAN-induced glomerulosclerosis (Wistar rats [2]; 7 weekly i.v. injections, 2 and 4 mg/kg): 용량 의존적으로 현저하게 감소시키는 | decrease in plasma LDL (Wistar rats [2]; especially 4 mg/kg groups): 현저하는 않더라도 관찰되었다 | effect on body weight vs PAN/saline (Wistar rats [2]; rat, in vivo): 관찰되지 않았다 | islet function (static insulin secretion) after 18 h culture (rat pancreatic islets [3]; 15-min ischemia): 섬 기능에 영향을 미치지 않았다 | glucose-induced insulin secretion vs ischemic rats (rat pancreatic islets [3]; 30-min ischemia, 100 μM): 더 높았으며 | islet apoptosis and necrosis (rat pancreatic islets [3]; 30-min ischemia, 100 μM): 세포 자멸 및 괴사를 감소시키는 | JNK and PAF2 phosphorylation induced by 15-min ischemia (rat pancreatic islets [3]; Western blot, Fig. 56): 투여량 의존적으로 감소되는 | hypoxia-induced phosphorylation of JNK and JUN (rat pancreatic islets [4]; 1 h pre-treatment + 4 h hypoxia): 인산화를 억제하지 않았다 | islet apoptosis and necrosis (rat pancreatic islets [4]; normoxia and hypoxia): 감소되었다 | alveolar bone height loss (ABHL) (Wistar rats [5]): 골 파괴가 덜 심함 | IL1-β expression vs placebo (Wistar rats [5]; gingival tissue ELISA): 현저하게 감소되었다 | gingival inflammation (GI) level (Wistar rats [5]; single intragingival dose day 10): GI 수준을 강하게 감소시켰다 | T/C ([6]; 0.1 mg/kg): 123% | tumour mass in liver, per mouse sacrificed at D171 (microscopy) ([6]; 0.1 mg/kg, 2 mice): 간에 종양 (1.3cm); also recorded: 검출된 종양 없음 | mean survival time (as headed) ([6]; 0.1 mg/kg/inj i.v. Q4Dx4, vehicle 86): 105 days | T/C ([6]; 1 mg/kg): 161% | tumour mass in liver, per mouse sacrificed at D171 (microscopy) ([6]; 1 mg/kg, 3 mice (2 without tumour)): 검출된 종양 없음; also recorded: 간에 종양 (1.9cm) | mean survival time (as headed) ([6]; 1 mg/kg/inj i.v. Q4Dx4): 138 days | T/C ([6]; 5 mg/kg): 137% | tumour mass in liver, per mouse sacrificed at D171 (microscopy) ([6]; 5 mg/kg, 3 mice): 검출된 종양 없음 검출된 종양 없음 검출된 종양 없음 | mean survival time (as headed) ([6]; 5 mg/kg/inj i.v. Q4Dx4): 118 days | tolerance (body weight) ([6]; 0.1-5 mg/kg): 내약성이 우수함 | mean tumour volume over time [7]: 종양 부피의 감소 | decline of contrast threshold (Brown Norway rats; 200 μg/eye): 현저하게 지연되었다 | ocular irritation (chemosis, hyperemia, discharge) (Brown Norway rats; 2, 20, 200 μg/eye every 2 weeks subconj.): 안구 자극이 관찰되지 않았다 | retinal cytokine levels (all 23) (Brown Norway rats; 20 or 200 μg/eye): BLQ | progression of visual acuity loss (spatial frequency threshold) (Brown Norway rats; 20 or 200 μg/eye, days 57-99): 현저하게 지연시켰다 | contrast threshold vs vehicle (Brown Norway rats; all doses, day 99): 현저하게 높은 대조 역치 값을 가졌으며 | visual acuity score vs vehicle-treated STZ group (Brown Norway rats; all doses, day 113 (significant at 2 and 200 μg/eye)): 높은 시력 점수를 보였고 | clinical score, mean ± SEM (n=20) (Lewis rats; 20 μg/eye subconj., day of induction, 24 h after LPS, vehicle 4.0 ± 0.2): 2.8 ± 0.2 | clinical score, mean ± SEM (n=20) (Lewis rats; [14]): 1.6 ± 0.1 | clinical score, median (Lewis rats; [14]): 1.5 | leukocytes in aqueous humor, mean ± SEM (n=20) (Lewis rats; [14]): 1668 ± 149 세포/μL | leukocytes in aqueous humor, median (Lewis rats; [14]): 1540 세포/μL | reduction of clinical score (Lewis rats; [14]): 60% | reduction of leukocyte infiltration (Lewis rats; [14]): 48% | clinical score, mean ± SEM (n=20) (Lewis rats; [15]): 1.8 ± 0.2 | clinical score, median (Lewis rats; [15]): 2.0 | leukocytes in aqueous humor, mean ± SEM (n=20) (Lewis rats; [15]): 1844 ± 232 세포/μL | leukocytes in aqueous humor, median (Lewis rats; [15]): 1500 세포/μL | reduction of clinical score (Lewis rats; [15]): 55% | reduction of leukocyte infiltration (Lewis rats; [15]): 43% | clinical score, mean ± SEM (n=20) (Lewis rats; [16]): 3.3 ± 0.2 | clinical score, median (Lewis rats; [16]): 3.0 | leukocytes in aqueous humor, mean ± SEM (n=20) (Lewis rats; [16]): 2878 ± 331 세포/μL | leukocytes in aqueous humor, median (Lewis rats; [16]): 2473 세포/μL | reduction of clinical score (Lewis rats; [16]): 18% | reduction of leukocyte infiltration (Lewis rats; [16]): 11% | clinical score, mean ± SEM (n=20) (Lewis rats; [17]): 2.9 ± 0.2 | clinical score, median (Lewis rats; [17]): 3.0 | leukocytes in aqueous humor, mean ± SEM (n=20) (Lewis rats; [17]): 976 ± 143 세포/μL | leukocytes in aqueous humor, median (Lewis rats; [17]): 648 세포/μL | reduction of clinical score (Lewis rats; [17]): 28% | reduction of leukocyte infiltration (Lewis rats; [17]): 70% | clinical score, mean ± SEM (n=20) (Lewis rats; [18]): 3.1 ±0.3 | clinical score, median (Lewis rats; [18]): 3.0 | leukocytes in aqueous humor, mean ± SEM (n=20) (Lewis rats; [18]): 1029 ± 164 세포/μL | leukocytes in aqueous humor, median (Lewis rats; [18]): 1023 세포/μL | reduction of clinical score (Lewis rats; [18]): 23% | reduction of leukocyte infiltration (Lewis rats; [18]): 68% | clinical score, mean ± SEM (n=20) (Lewis rats; [19]): 3.3 ± 0.2 | clinical score, median (Lewis rats; [19]): 4.0 | leukocytes in aqueous humor, mean ± SEM (n=20) (Lewis rats; [19]): 1260 ± 263 세포/μL | leukocytes in aqueous humor, median (Lewis rats; [19]): 915 세포/μL | reduction of clinical score (Lewis rats; [19]): 18% | reduction of leukocyte infiltration (Lewis rats; [19]): 61% | clinical score, median (Lewis rats; 20 μg/eye, day of induction): 3.0 | leukocytes in aqueous humor, median (Lewis rats; 20 μg/eye, day of induction): 2005 세포/μL | reduction of clinical score (Lewis rats; 20 μg/eye, day of induction): 30% | reduction of leukocyte infiltration (Lewis rats; 20 μg/eye, day of induction): 31% | leukocytes in aqueous humor, mean ± SEM (n=20) (Lewis rats; 20 μg/eye, day of induction, vehicle 3236 ± 346): 2226 ± 192 세포/μL | mean tubular epithelial degeneration/necrosis score (0-4) (Sprague-Dawley rats; 2 mg/kg i.v. 20 min after reperfusion, 24 h, IR/vehicle 3.45 ± 0.52): 2.67 ± 0.65 | animals with degeneration/necrosis score 2 (Sprague-Dawley rats; 2 mg/kg i.v., IR/vehicle 0/11): 5/12 | mean basophilic tubules score (0-4) (Sprague-Dawley rats; 2 mg/kg i.v., IR/vehicle 1.36 ± 0.67): 1.33 ± 0.65 | tubular cast score (0-4) (Sprague-Dawley rats; 2 mg/kg i.v., IR/vehicle 3.00 ± 0.00): 2.50 ± 0.52 | animals with degeneration/necrosis score 4 (Sprague-Dawley rats; 2 mg/kg i.v., IR/vehicle 5/11): 1/12 | total tubular score (Sprague-Dawley rats; 2 mg/kg i.v., IR/vehicle 7.82 ± 0.98): 6.50 ± 0.80 | nociceptive threshold vs vehicle ([8]; 24 h after CYP, p<0.01): 현저하게 증가하였다 | AUC 1-8 g (allodynia) vs vehicle ([8]; p<0.001): 현저하게 감소되었다 | AUC 8-60 g (hyperalgesia) vs vehicle ([8]; p<0.001): 현저하게 감소되었다 | nociceptive scores vs vehicle ([8]; p<0.001): 현저하게 감소시켰다 | JNK activity (pJNK/JNK) [9, 20]: 변화는 관찰되지 않았다 | decrease of apoptosis (cleaved PARP) [9, 20]: 37% | decrease of caspase 3 activity ([9]; 10 μM, 2 μM Aβ42): 71% | decrease of cleaved PARP expression level ([9]; 10 μM, 2 μM Aβ42): 55% | decrease of cleaved caspase 3 expression level ([9]; 10 μM, 2 μM Aβ42): 93% | change of c-Jun expression vs stressed neurons without peptide [9, 21]: -65% | change of c-Jun phosphorylation vs stressed neurons without peptide [9, 21]: -74% | decrease of PARP expression level vs treated WT neurons [10, 22]: 93% | decrease of caspase 3 activity vs treated WT neurons [10, 22]: 87% | decrease of cleaved caspase 3 vs treated WT neurons [10, 22]: 83% | change of JNK activation ([10]; peptide pre-treatment (XG-102 10 μM), 2 μM Aβ42): -35% | c-Jun activation ([10]; peptide pre-treatment, 2 μM Aβ42): 변화시키지 않았다 | incorporation into primary macrophages (primary macrophages): 강하게 병합된다 | accumulation in liver, especially Kupffer cells [11]: 명백한 축적 | presence in choroid, bulbar conjunctiva, iris-ciliary body ([12]; 7 days after administration): 여전히 존재함 | detection in plasma ([12]; rabbit, in vivo): 항상 검출되지 않았다 | stability of diluted formulations for animal dosing ([13]; 2-4°C): 24 시간 | stability of stock solution (1 mM) ([13]; about -80°C): 3 개월 | stability of stock solution (10 mM in water) ([13]; about -80°C): ≥ 100 일 | stability of diluted formulations for animal dosing ([13]; room temperature): 24 시간 | stability in saline ([13]; room temperature, 10 μg/ml - 50 mg/ml): 8 시간
